{"source": "patent US12102607B2", "about": "“C5aR inhibitors for use in the treatment of chemotherapy-induced iatrogenic pain” (Dompe' Farmaceutici S.P.A., priority 2017, dated 2024)", "key": {"[1]": {"test_system": "paclitaxel-induced mechanical allodynia in male Balb/C mice", "experiment": "Paclitaxel-induced mechanical allodynia, Dynamic Plantar Aesthesiometer, DF3966A", "type": "in vivo", "settings": "30 mg/kg/os twice daily day 1 to 14; days 3, 5, 7, 10 and 14", "method": "(§1) For the experiments with DF3966A, animals were housed in the animal care facility of the Department of Pharmacy of the University of Naples, Italy, in a room with controlled temperature (22±1° C.), humidity (60±10%) and light (12 h per day); food and water were available ad libitum. All behavioural tests were performed between 9:00 AM and 5:00 PM, and the animals were used only once. Animal care and manipulations were conducted in conformity with International and National law and policies (EU Directive 2010/63/EU for animal experiments, ARRIVE guidelines and the Basel declaration including the 3R concept). The procedure reported here were approved by the Institutional Committee on the Ethics of Animal Experiments (CVS) of the University of Naples Federico II and by Ministero della Salute under protocol n. 2014-00884607.\n(§2) The protocol used was performed according POLOMANO et al., 2001, adapted to mice. The animals received paclitaxel 4 mg/kg intraperitoneally (i.p.) for four alternate days (days 1, 3, 5, and 7). During treatment period, mechanical and cold allodynia were measured 4 hours after the injection of paclitaxel.\nDF3966A was administrated 30 mg/kg/os from 1st at 14th day (twice daily; 8.00 am and 20.00 pm). […]\nIn DF3966A experiments, sensitivity to tactile stimulation was measured using the Dynamic Plantar Aesthesiometer (DPA, Ugo Basile, Italy). […]"}, "[2]": {"test_system": "paclitaxel-induced cold allodynia in male Balb/C mice", "experiment": "Paclitaxel-induced cold allodynia, DF3966A", "type": "in vivo", "settings": "30 mg/kg/os twice daily day 1 to 14; days 3, 5, 7, 10 and 14", "method": "as §1\nas §2, with “paclitaxel. […]” for “paclitaxel.”\nIn the same apparatus of von Frey test, and nearly 15 minutes after the mechanical test, was performed the acetone test. […] All movements as licking, flinching or lifting of paw were recorded with a chronometer in a total testing time of 2 minutes."}}, "data": [{"smiles": "C[C@H](c1ccc(Nc2nc(C(F)(F)F)cs2)cc1)c1nnn[nH]1", "note": "[DF3966A, 1-N-[4-[(1R)-1-(1H-tetrazol-5-yl)ethyl]phenyl}-4-(trifluoromethyl)-11,3-thiazol-2-amine]", "values": [{"measurement": "mechanical allodynia vs vehicle control animals", "setting": "[1]", "value": "significant reduction of mechanical allodynia"}, {"measurement": "cold allodynia vs vehicle control animals", "setting": "[2]", "value": "significant reduction of cold allodynia"}]}]}
